Experimental data: patent US20250057823A1, “COMPOSITION FOR IMPROVING CARDIAC FUNCTION” (Kyoto University, priority 2021, published 2025)
Where a name gives a salt, the structure may show the parent alone.

Legend:
[1] = test system: beagle dog models of heart failure; test: Beagle dog models of rapid ventricular pacing-induced heart failure; assay type: in vivo; details: infusion per FIG. 17 protocol
Description: After induction of general anesthesia with thiopental sodium (20 mg/kg, i.v.: 0.5 g of Labonal injection, Nipro ES Pharma Corporation) in 10- to 12-month-old male beagle dogs (9.80-11.50 kg), a tracheal cannula was inserted into the airway, and artificial respiration was performed with an Acoma veterinary ventilator (PRO-45Va, Acoma Medical Corporation). Anesthesia was maintained by inhalation of a gas mixture (Air:O2=3:0.2) and 1.0 to 2.5% isoflurane (isoflurane inhalation solution “Pfizer”, Mylan Seiyaku Co., Ltd.) using an Acoma animal anesthesia machine (NS-5000A, Acoma Medical Industry Co., Ltd.) to maintain a constant depth of anesthesia. An incision was made in the right side of the neck of the animal, an animal internal cardiac pacemaker (SIP-501, Star Medical Corporation) was implanted subcutaneously, a retractable screw-in reed (Tendril STS J, St. Jude Medical, Inc.) was inserted through the right jugular vein under X-ray fluoroscopy (BV Pulsera, Koninklijke Philips N.V.), and the tip was implanted in the right ventricular wall. Pacing was started at 244-251 beats/min on postoperative day 1. Dogs with ejection fraction (EF) decreasing to 30-50% at 4 weeks after pacemaker activation were considered to have heart failure and subjected to analysis.
Echocardiography was performed using a general-purpose ultrasound imaging system (Vivid S6, GE Medical Systems). The left ventricular end-diastolic diameter (LVIDd), left ventricular end-systolic diameter (LVIDs), ejection fraction (EF), and left ventricular internal diameter shortening (% FS) were measured in M-mode by placing a sector probe (10 MHz) on the chest.
Dogs were anesthetized intravenously with 14.5 to 22.3 mg/kg of secobarbital sodium (Injectable Ionar sodium (0.2), Nichi-Iko Co., Ltd.), followed by subcutaneous administration of 0.2 mg/kg of meloxicam (Metacam 0.5% injection, Boehringer Ingelheim Animal Health Japan Co.). A tracheal tube was inserted into the airway and connected to an Acoma animal ventilator (PRO-45Va, Acoma Medical Industry Co., Ltd.). The ventilator was set at a respiratory rate of 14-18 strokes/min and a tidal volume of 10-20 mL/kg/stroke, and respiration was controlled by an Acoma animal anesthesia machine (NS-5000A, Acoma Medical Industry Co., Ltd.) using a gas mixture (FiO2=0.3-1.0). The exhaled CO2 partial pressure was monitored using an exhaled carbon dioxide monitor (OLG-2800, Nihon Kohden Corporation). The animals were fixed in the dorsal position and the thighs and neck were shom. Anesthesia was maintained by continuous intravenous infusion of sodium secobarbital (5 mg/kg/hr) through the radial cutaneous vein using a Telfusion syringe pump (STC-523, Terumo Corporation). A Swan-Ganz catheter was inserted through the left femoral vein. A catheter for coronary angiography was inserted through the left femoral artery. A 5F sheath for arterial blood sampling was placed in the right femoral artery. A catheter for PV-loop analysis was inserted from the left internal carotid artery. An 8F occlusion balloon was placed from the right femoral vein for occlusion testing. In addition, KUS121 was administered from the left common jugular vein.
Beagle dog models of heart failure were prepared by rapid ventricular pacing. Cardiac function was assessed by echocardiography before KUS121 administration and after continuous infusion at 40 mg/h. KUS121 increased LVEF, even if it was based on either of the Teichholz method and the modified-Simpson's method, and increased % FS (FIG. 18). Changes in heart rate, systolic blood pressure, diastolic blood pressure, left ventricular ejection fraction, mean pulmonary artery pressure, pulmonary capillary wedge pressure, left ventricular end-diastolic pressure, and adjusted dp/dt are shown in FIGS. 19 to 21. […]

TAC mice = test: Acute effect on mouse models of heart failure (TAC, single injection 5 weeks later); assay type: in vivo; details: TAC mice 5 weeks after TAC, 50 mg/kg, echocardiography before and 10 minutes after injection
Description: Transverse aortic constriction (TAC) was performed as described previously [Date, et al. (2002) The antioxidant N-2-mercaptopropionyl glycine attenuates left ventricular hypertrophy in in vivo murine pressure-overload model. J Am Coll Cardiol 39: 907-912.]. Briefly, 8- to 10-week-old mice were anesthetized with anesthetic (0.3 mg/kg of medetomidine, 4.0 mg/kg of midazolam, and 5.0 mg/kg of butorphanol) administered intraperitoneally, and the proximal portion of the sternum was cut open to visualize the aorta. A 7-0 silk suture was placed around the aortic arch distal to the brachiocephalic artery. The suture was tightened firmly around a blunt 26-gauge needle placed adjacent to the aorta. The needle was then removed, and the chest and overlying skin were closed. Sham-operated mice underwent an identical surgical procedure without ligation of the aortic arch. At the end of the operation, 0.3 mg/kg of atipamezole was administered subcutaneously to reverse medetomidine. FIG. 1 is a schematic diagram of TAC.
To analyze the cardiac function, we used Vevo® 2100 (VISUALSONICS) at the indicated time points after TAC operation. Mice were kept under inhalation anesthesia with 2.5% isoflurane. LV function was measured in M mode of the parasternal short-axis view.
Mice were subjected to TAC at 8 weeks of age. Five weeks later (at 13 weeks of age), the mice were injected with KUS121 (50 mg/kg), and left ventricular ejection fraction (LVEF), left ventricular end-diastolic diameter (LVDd), and heart rate (HR) were assessed by echocardiography before and 10 minutes after the injection.
Mice were subjected to TAC at 8 weeks of age. Five weeks later (at 13 weeks of age), the mice were injected with KUS121 (50 mg/kg), and left ventricular pressure was measured by catheterization before and 10 minutes after the injection. The left ventricular pressure was 46.6 mmHg before KUS121 administration, and increased to 128.9 mmHg 10 minutes after the administration. In addition, Max/min dp/dt was changed from 1295.5/−621.4 mmHg/s to 3972.8/−1311.1 mmHg/s. […] Left ventricular ejection fraction was then measured over time and was 37% before KUS121 administration, increased to 67% 5 minutes after the administration, and returned to the baseline about 2 hours after the administration (FIG. 16).
Mice were subjected to TAC at 8 weeks of age. Five weeks later (at 13 weeks of age), the mice were injected with KUS187 (50 mg/kg), and left ventricular ejection fraction was assessed by echocardiography before and 10 minutes after the injection.

SMILES | heart rate [1] | left ventricular systolic function [1] | left ventricular ejection fraction (LVEF) (TAC mice)
CC(CCc1ccc(O)cc1)NCCc1ccc(O)c(O)c1 (stereo not drawn) [dobutamine, reference compound] | increased heart rate | improved | –
CCCCOc1c(C=O)cc(C)cc1-c1ccc(/N=N/c2cc(S(=O)(=O)O)c3ccccc3c2N)cn1 [KUS187, 4-amino-3-[6-(3-formyl-2-butoxy-5-methylphenyl)pyridine-3-ylazo]naphthalene-1-sulfonic acid sodium salt] | – | – | increased
